Results published in ChEMBL document CHEMBL3046957, “Synthesis of new oxadiazole derivatives as anti-inflammatory, analgesic, and antimicrobial agents” (2013).

Columns and labels:
Assay type in all cases: functional
[1] = test system: Aspergillus niger; assay: Antifungal activity against Aspergillus niger assessed as growth inhibition at 100 ug/mL after 24 hr by cup-plate method; details: read-out: DIZ
[2] = test system: Aspergillus niger; assay: Antifungal activity against Aspergillus niger assessed as growth inhibition at 50 ug/mL after 24 hr by cup-plate method; details: read-out: DIZ
[3] = test system: Candida albicans; assay: Antifungal activity against Candida albicans assessed as growth inhibition at 100 ug/mL after 24 hr by cup-plate method; details: read-out: DIZ
[4] = test system: Candida albicans; assay: Antifungal activity against Candida albicans assessed as growth inhibition at 50 ug/mL after 24 hr by cup-plate method; details: read-out: DIZ
[5] = test system: Pseudomonas aeruginosa; assay: Antibacterial activity against Pseudomonas aeruginosa assessed as growth inhibition at 100 ug/mL after 24 to 48 hr by cup-plate method; details: read-out: DIZ
[6] = test system: Pseudomonas aeruginosa; assay: Antibacterial activity against Pseudomonas aeruginosa assessed as growth inhibition at 50 ug/mL after 24 to 48 hr by cup-plate method; details: read-out: DIZ
[7] = test system: Escherichia coli; assay: Antibacterial activity against Escherichia coli assessed as growth inhibition at 100 ug/mL after 24 to 48 hr by cup-plate method; details: read-out: DIZ
[8] = test system: Bacillus subtilis; assay: Antibacterial activity against Bacillus subtilis assessed as growth inhibition at 100 ug/mL after 24 to 48 hr by cup-plate method; details: read-out: DIZ
[9] = test system: Escherichia coli; assay: Antibacterial activity against Escherichia coli assessed as growth inhibition at 50 ug/mL after 24 to 48 hr by cup-plate method; details: read-out: DIZ
[10] = test system: Bacillus subtilis; assay: Antibacterial activity against Bacillus subtilis assessed as growth inhibition at 50 ug/mL after 24 to 48 hr by cup-plate method; details: read-out: DIZ
[11] = test system: Staphylococcus aureus; assay: Antibacterial activity against Staphylococcus aureus assessed as growth inhibition at 100 ug/mL after 24 to 48 hr by cup-plate method; details: read-out: DIZ
[12] = test system: Staphylococcus aureus; assay: Antibacterial activity against Staphylococcus aureus assessed as growth inhibition at 50 ug/mL after 24 to 48 hr by cup-plate method; details: read-out: DIZ
[13] = test system: Mus musculus; assay: Analgesic activity in Swiss albino Mus musculus (mouse) assessed as latency time of heat-induced paw licking/jumping behaviour at 10 mg/kg after 4 hr by Eddy's hot plate method (reference value: 4.57 +/- 0.11 secs)
[14] = test system: Mus musculus; assay: Analgesic activity in Swiss albino Mus musculus (mouse) assessed as latency time of heat-induced paw licking/jumping behaviour at 10 mg/kg after 2 hr by Eddy's hot plate method (reference value: 4.86 +/- 0.18 secs)
[15] = test system: Mus musculus; assay: Analgesic activity in Swiss albino Mus musculus (mouse) assessed as latency time of heat-induced paw licking/jumping behaviour at 10 mg/kg after 1 hr by Eddy's hot plate method (reference value: 4.74 +/- 0.21 secs)
[16] = test system: Mus musculus; assay: Analgesic activity in Swiss albino Mus musculus (mouse) assessed as latency time of heat-induced paw licking/jumping behaviour at 10 mg/kg after 0.5 hr by Eddy's hot plate method (reference value: 4.17 +/- 0.04 secs)
[17] = test system: Rattus norvegicus; assay: Anti-inflammatory activity in Wistar albino Rattus norvegicus (rat) assessed as inhibition of carrageenan-induced paw edema at 10 mg/kg, po administered 30 min prior to carrageenan challenge measured after 3 hr by plethysmometric analysis relative to untreated control
[18] = test system: Rattus norvegicus; assay: Anti-inflammatory activity in Wistar albino Rattus norvegicus (rat) assessed as inhibition of carrageenan-induced paw edema at 10 mg/kg, po administered 30 min prior to carrageenan challenge measured after 2 hr by plethysmometric analysis relative to untreated control
[19] = test system: Rattus norvegicus; assay: Anti-inflammatory activity in Wistar albino Rattus norvegicus (rat) assessed as inhibition of carrageenan-induced paw edema at 10 mg/kg, po administered 30 min prior to carrageenan challenge measured after 1.5 hr by plethysmometric analysis relative to untreated control
[20] = test system: Rattus norvegicus; assay: Anti-inflammatory activity in Wistar albino Rattus norvegicus (rat) assessed as inhibition of carrageenan-induced paw edema at 10 mg/kg, po administered 30 min prior to carrageenan challenge measured after 1 hr by plethysmometric analysis relative to untreated control
[21] = test system: Rattus norvegicus; assay: Anti-inflammatory activity in Wistar albino Rattus norvegicus (rat) assessed as inhibition of carrageenan-induced paw edema at 10 mg/kg, po administered 30 min prior to carrageenan challenge measured after 0.5 hr by plethysmometric analysis relative to untreated control

SMILES	zone of inhibition at 100 µg/mL [1] [mm]	zone of inhibition at 50 µg/mL [2] [mm]	zone of inhibition at 100 µg/mL [3] [mm]	zone of inhibition at 50 µg/mL [4] [mm]	zone of inhibition at 100 µg/mL [5] [mm]	zone of inhibition at 50 µg/mL [6] [mm]	zone of inhibition at 100 µg/mL [7] [mm]	zone of inhibition at 100 µg/mL [8] [mm]	zone of inhibition at 50 µg/mL [9] [mm]	zone of inhibition at 50 µg/mL [10] [mm]	zone of inhibition at 100 µg/mL [11] [mm]	zone of inhibition at 50 µg/mL [12] [mm]	Time [13] [s]	Time [14] [s]	Time [15] [s]	Time [16] [s]	inhibition in vivo at 10 mg/kg [17] [%]	inhibition in vivo at 10 mg/kg [18] [%]	inhibition in vivo at 10 mg/kg [19] [%]	inhibition in vivo at 10 mg/kg [20] [%]	also measured
COc1ccc(F)cc1-c1cccc(-c2nn(CCCN3C(=O)c4ccccc4C3=O)c(=O)o2)c1	10	7	10	6	19	13	18	18	15	13	16	10	4.01	4.01	4.11	4.75	64	61	49	30	inhibition in vivo at 10 mg/kg [21]: 19%
COc1ccc(F)cc1-c1cccc(-c2nn(CCOC3CCCCO3)c(=O)o2)c1 (stereo not given)	11	8	9	9	21	18	16	15	9	11	14	9	4.21	4.58	4.21	4.81	65	56	44	32	inhibition in vivo at 10 mg/kg [21]: 16%
COc1ccc(F)cc1-c1cccc(-c2nn(CCCN)c(=O)o2)c1	12	10	12	5	21	17	16	19	15	12	17	12	5.49	6.84	4.62	4.93	77	66	55	43	inhibition in vivo at 10 mg/kg [21]: 29%
COc1ccc(F)cc1-c1cccc(-c2nn(CCO)c(=O)o2)c1	10	9	8	4	20	18	19	18	18	13	16	14	5.59	6.88	4.36	4.96	75	69	53	41	inhibition in vivo at 10 mg/kg [21]: 28%
COc1ccc(F)cc1-c1cccc(-c2nn(CCOS(=O)(=O)c3ccc(Cl)c(Cl)c3)c(=O)o2)c1	10	7	9	3	15	12	19	17	12	10	15	12	5.55	5.72	4.48	4.95	66	64	51	39	inhibition in vivo at 10 mg/kg [21]: 25%
